Source: article PMC2897734 (Current topics in medicinal chemistry, 2009)
pIC50: −log10 of the molar value. Each block holds one compound with its values, some of them ahead of it.

Experiments:
Type in all cases: binding
[1] = molecular target: T1, putative adenylate kinase (Leishmania major, UniProt Q4Q7A6); experiment: fragment cocktail soak, crystal electron density
T1 sequence (Q4Q7A6 1-180): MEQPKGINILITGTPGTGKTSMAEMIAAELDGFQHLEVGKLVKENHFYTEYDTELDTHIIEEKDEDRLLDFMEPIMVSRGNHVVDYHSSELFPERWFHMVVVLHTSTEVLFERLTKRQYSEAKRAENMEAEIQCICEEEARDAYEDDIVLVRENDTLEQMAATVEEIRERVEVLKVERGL

[2] = molecular target: T2, uracil-DNA glycosylase (Leishmania naiffi, UniProt D0VWU0); experiment: fragment cocktail soak, crystal structure
T2 sequence (D0VWU0 1-260): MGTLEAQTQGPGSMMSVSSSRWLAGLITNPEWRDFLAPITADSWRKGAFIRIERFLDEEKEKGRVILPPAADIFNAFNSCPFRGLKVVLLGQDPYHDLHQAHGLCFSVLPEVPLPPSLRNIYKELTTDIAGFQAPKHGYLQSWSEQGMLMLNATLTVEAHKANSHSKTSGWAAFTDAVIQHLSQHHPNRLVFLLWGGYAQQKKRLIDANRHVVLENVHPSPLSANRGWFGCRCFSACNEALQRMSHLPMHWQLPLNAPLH

[3] = molecular target: T2, uracil-DNA glycosylase; experiment: fragment cocktail soak, crystal structure; remark: listed apart in the source
[4] = molecular target: coproporphyrinogen III oxidase (Leishmania major, UniProt P84155); experiment: fragment cocktail soak, crystal structure
[5] = molecular target: T3, phosphoglycerate mutase (PGM) (Plasmodium falciparum, UniProt Q8IIG6); experiment: fragment cocktail soak, crystal electron density
T3 sequence (Q8IIG6 1-250): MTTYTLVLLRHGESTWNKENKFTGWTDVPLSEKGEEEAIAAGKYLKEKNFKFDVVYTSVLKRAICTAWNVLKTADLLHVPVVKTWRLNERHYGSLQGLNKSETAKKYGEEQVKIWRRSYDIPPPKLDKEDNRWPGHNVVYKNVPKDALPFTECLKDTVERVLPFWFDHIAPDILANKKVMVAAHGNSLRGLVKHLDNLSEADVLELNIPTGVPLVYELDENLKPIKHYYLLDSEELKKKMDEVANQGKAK

coproporphyrinogen III oxidase, sequence (P84155 whole entry, the tested form may be a part): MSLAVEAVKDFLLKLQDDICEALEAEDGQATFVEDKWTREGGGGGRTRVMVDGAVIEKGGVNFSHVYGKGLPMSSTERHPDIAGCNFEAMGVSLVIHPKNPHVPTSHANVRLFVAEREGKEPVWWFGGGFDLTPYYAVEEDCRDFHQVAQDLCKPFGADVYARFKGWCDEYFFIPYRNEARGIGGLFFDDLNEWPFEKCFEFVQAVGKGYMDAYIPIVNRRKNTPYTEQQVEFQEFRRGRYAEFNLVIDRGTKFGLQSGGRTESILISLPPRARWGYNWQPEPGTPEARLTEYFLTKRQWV

SMILES: Cc1cc(N)c2ccccc2n1 [4-amino-2-methylquinoline]
fragment cocktail soak, crystal electron density [1]: Electron density for 4-amino-2-methylquinoline when bound to L.major adenylate kinase (left)

SMILES: c1cc(N2CCOCC2)ccn1 [4-morpholinopyridine]
fragment cocktail soak, crystal structure [2]: Fragments bound to L.naiffi uracil-DNA glycosylase: 4-morpholinopyridine (left upper)

pIC50 [3]: ~1.82
SMILES: COc1ccc(Cl)cc1C(=O)O [5-chloro-2-methoxybenzoic acid]

SMILES: O=C(O)c1cc2cc(F)ccc2[nH]1 [5-fluoroindole-2-carboxylic acid]
fragment cocktail soak, crystal structure [4]: Fragments from two different cocktails were found to bind: 5-fluoroindole-2-carboxylic acid (PDB: 3DWS)

SMILES: O=C(O)c1ccc(-c2ccccc2)o1 [5-phenyl-2-furoic acid]
fragment cocktail soak, crystal electron density [5]: Electron density for 5-Phenyl-2-furoic acid when bound to P.falciparum PGM (left)

SMILES: O=C(O)c1ccc2cccc(O)c2n1 [8-hydroxyquinoline-2-carboxylic acid]
fragment cocktail soak, crystal structure [2]: DMSO and 8-hydroxyquinoline-2-carboxylic acid (left lower)
